Measured values as given in ChEMBL document CHEMBL4613266, “Discovery and Structure Relationships of Salicylanilide Derivatives as Potent, Non-acidic P2X1 Receptor Antagonists” (J Med Chem, 2020).

How the values were obtained:
[1] = biological target: T1, P2X purinoceptor 1 (Homo sapiens) (UniProt P51575); experiment: Antagonist activity P2X1 receptor in Apyrase pre-treated human platelets assessed as inhibition of TRAP6-induced platelet aggregation pre-incubated for 30 mins before TRAP6 stimulation by aggregometry relative to control; type: cell-based
T1 sequence (whole entry): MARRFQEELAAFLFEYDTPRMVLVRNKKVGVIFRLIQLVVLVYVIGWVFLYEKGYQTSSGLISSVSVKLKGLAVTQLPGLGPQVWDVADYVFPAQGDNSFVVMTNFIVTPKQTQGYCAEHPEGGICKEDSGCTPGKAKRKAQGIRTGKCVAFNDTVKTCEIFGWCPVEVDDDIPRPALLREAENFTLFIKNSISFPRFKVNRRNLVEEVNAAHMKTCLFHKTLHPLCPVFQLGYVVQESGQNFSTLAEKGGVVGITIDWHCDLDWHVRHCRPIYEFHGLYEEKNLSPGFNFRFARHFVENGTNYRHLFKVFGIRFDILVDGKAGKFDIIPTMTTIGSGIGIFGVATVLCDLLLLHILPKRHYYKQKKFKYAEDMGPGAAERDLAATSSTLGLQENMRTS

[2] = biological target: T2, P2X purinoceptor 2 (Homo sapiens) (UniProt Q9UBL9); experiment: Antagonist activity at human P2X2 receptor expressed in human 1321N1 cells assessed as inhibition of ATP-induced cytosolic calcium influx at 10 uM preincubated for 30 mins followed by ATP addition by Fluo-4 AM dye-based fluorescence assay relative to control; type: cell-based
T2 sequence (whole entry): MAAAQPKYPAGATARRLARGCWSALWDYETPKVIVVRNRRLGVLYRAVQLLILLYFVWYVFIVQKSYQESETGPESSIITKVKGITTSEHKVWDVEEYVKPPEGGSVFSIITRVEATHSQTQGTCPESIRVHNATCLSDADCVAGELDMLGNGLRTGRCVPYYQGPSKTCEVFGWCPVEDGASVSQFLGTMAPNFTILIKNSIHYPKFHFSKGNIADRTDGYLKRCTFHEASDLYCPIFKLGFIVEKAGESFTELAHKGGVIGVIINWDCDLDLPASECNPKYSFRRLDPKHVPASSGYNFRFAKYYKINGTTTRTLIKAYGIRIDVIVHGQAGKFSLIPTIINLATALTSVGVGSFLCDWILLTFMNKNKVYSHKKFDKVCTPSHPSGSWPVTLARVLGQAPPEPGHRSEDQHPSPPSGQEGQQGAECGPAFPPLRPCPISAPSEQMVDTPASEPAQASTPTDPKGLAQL

P2X purinoceptor 7 = biological target: T3, P2X purinoceptor 7 (Homo sapiens, UniProt Q99572); experiment: Antagonist activity at human P2X7 receptor expressed in human 1321N1 cells assessed as inhibition of ATP-induced cytosolic calcium influx preincubated for 30 mins followed by ATP addition by Fluo-4 AM dye-based fluorescence assay; type: cell-based
T3 sequence (Q99572 whole entry): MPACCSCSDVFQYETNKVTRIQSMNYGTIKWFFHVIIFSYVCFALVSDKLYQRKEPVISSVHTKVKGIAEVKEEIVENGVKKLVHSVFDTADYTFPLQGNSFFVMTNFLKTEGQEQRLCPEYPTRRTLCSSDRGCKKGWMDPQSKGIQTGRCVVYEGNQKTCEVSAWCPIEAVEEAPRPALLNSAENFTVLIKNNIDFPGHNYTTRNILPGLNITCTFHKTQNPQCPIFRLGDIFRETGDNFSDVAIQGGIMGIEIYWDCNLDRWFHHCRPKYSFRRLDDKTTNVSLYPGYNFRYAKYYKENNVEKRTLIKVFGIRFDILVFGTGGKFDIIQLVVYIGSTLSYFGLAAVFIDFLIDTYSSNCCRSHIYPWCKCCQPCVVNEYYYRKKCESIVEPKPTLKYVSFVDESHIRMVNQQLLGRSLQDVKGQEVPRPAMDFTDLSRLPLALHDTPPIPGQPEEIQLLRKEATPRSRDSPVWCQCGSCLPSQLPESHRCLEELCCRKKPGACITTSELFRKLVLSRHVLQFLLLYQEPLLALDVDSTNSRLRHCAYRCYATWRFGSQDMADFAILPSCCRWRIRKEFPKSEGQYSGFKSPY

P2X purinoceptor 4 = biological target: T4, P2X purinoceptor 4 (Homo sapiens, UniProt Q99571); experiment: Antagonist activity at human P2X4 receptor expressed in human 1321N1 cells assessed as inhibition of ATP-induced cytosolic calcium influx preincubated for 30 mins followed by ATP addition by Fluo-4 AM dye-based fluorescence assay; type: cell-based
T4 sequence (Q99571 whole entry): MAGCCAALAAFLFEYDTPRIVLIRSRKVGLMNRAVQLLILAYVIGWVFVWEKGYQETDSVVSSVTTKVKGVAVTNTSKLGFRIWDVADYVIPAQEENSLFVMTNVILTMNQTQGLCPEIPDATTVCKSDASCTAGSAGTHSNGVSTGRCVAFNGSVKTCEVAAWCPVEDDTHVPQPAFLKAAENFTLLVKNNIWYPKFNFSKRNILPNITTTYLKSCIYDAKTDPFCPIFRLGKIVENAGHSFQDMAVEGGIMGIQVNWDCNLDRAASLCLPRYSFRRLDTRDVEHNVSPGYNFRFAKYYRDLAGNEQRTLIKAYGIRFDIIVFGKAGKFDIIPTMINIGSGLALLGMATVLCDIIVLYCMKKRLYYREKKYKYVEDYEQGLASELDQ

P2X purinoceptor 3 = biological target: T5, P2X purinoceptor 3 (Homo sapiens, UniProt P56373); experiment: Antagonist activity at human P2X3 receptor expressed in human 1321N1 cells assessed as inhibition of ATP-induced cytosolic calcium influx preincubated for 30 mins followed by ATP addition by Fluo-4 AM dye-based fluorescence assay; type: cell-based
T5 sequence (P56373 whole entry): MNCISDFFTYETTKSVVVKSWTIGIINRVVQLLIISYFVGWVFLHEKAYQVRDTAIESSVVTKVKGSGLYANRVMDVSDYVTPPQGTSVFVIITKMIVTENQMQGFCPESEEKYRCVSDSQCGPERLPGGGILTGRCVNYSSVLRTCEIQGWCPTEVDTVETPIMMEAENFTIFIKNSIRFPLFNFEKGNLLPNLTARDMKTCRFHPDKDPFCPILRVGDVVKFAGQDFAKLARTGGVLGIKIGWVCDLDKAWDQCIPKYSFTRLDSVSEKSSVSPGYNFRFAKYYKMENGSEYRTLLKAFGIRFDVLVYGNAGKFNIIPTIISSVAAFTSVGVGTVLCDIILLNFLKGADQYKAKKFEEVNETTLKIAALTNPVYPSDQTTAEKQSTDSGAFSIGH

[3] = biological target: T6, P2X purinoceptor 3 (Homo sapiens) (UniProt P56373); experiment: Antagonist activity at human P2X3 receptor expressed in human 1321N1 cells assessed as inhibition of ATP-induced cytosolic calcium influx at 10 uM preincubated for 30 mins followed by ATP addition by Fluo-4 AM dye-based fluorescence assay relative to control; type: cell-based
T6 sequence (whole entry): T5 sequence (P56373 whole entry)

P2X purinoceptor 2 = biological target: T7, P2X purinoceptor 2 (Homo sapiens, UniProt Q9UBL9); experiment: Antagonist activity at human P2X2 receptor expressed in human 1321N1 cells assessed as inhibition of ATP-induced cytosolic calcium influx preincubated for 30 mins followed by ATP addition by Fluo-4 AM dye-based fluorescence assay; type: cell-based
T7 sequence (Q9UBL9 whole entry): T2 sequence (whole entry)

[4] = biological target: T1, P2X purinoceptor 1 (Homo sapiens); experiment: Antagonist activity at non-desensitizing human P2X1 receptor ( P2X2/P2X1 chimera) expressed in human 1321N1 cells assessed as inhibition of ATP-induced calcium influx at 10 uM pre-incubated for 30 mins before ATP stimulation by FLIPR assay relative to control; type: cell-based
[5] = biological target: T1, P2X purinoceptor 1 (Homo sapiens); experiment: Antagonist activity P2X1 receptor in human platelets assessed as inhibition of ADP-induced platelet aggregation pre-incubated for 30 mins before ADP stimulation by aggregometry relative to control; type: cell-based
P2X purinoceptor 1 [6] = biological target: P2X purinoceptor 1 (Homo sapiens, UniProt P51575); experiment: Antagonist activity at non-desensitizing human P2X1 receptor ( P2X2/P2X1 chimera) expressed in human 1321N1 cells assessed as inhibition of ATP-induced calcium influx pre-incubated for 30 mins before ATP stimulation by FLIPR assay relative to control; type: cell-based
[7] = biological target: T1, P2X purinoceptor 1 (Homo sapiens); experiment: Antagonist activity at non-desensitizing human P2X1 receptor ( P2X2/P2X1 chimera) expressed in human 1321N1 cells assessed as inhibition of ATP-induced calcium influx at 100 uM pre-incubated for 30 mins before ATP stimulation by FLIPR assay relative to control; type: cell-based
P2X purinoceptor 1 [8] = biological target: T8, P2X purinoceptor 1 (Rattus norvegicus, UniProt P47824); experiment: Antagonist activity at rat P2X1 receptor
T8 sequence (P47824 whole entry): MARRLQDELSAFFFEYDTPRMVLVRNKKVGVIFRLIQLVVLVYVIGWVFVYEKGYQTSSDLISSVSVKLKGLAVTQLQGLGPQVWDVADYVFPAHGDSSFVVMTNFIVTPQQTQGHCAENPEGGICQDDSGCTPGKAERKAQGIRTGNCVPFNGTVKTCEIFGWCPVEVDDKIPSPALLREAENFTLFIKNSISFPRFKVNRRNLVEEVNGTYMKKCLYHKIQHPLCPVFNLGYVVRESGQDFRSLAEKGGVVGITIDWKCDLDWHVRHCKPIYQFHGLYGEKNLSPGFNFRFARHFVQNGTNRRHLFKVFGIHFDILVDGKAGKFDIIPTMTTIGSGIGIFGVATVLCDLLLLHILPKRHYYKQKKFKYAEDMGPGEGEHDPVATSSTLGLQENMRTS

[9] = biological target: T1, P2X purinoceptor 1 (Homo sapiens); experiment: Antagonist activity at non-desensitizing human P2X1 receptor ( P2X2/P2X1 chimera) expressed in human 1321N1 cells assessed as inhibition of ATP-induced calcium influx at 1 uM pre-incubated for 30 mins before ATP stimulation by FLIPR assay relative to control; type: cell-based

SMILES | inhibition [1] [%] | inhibition [2] [%] | IC50 (P2X purinoceptor 7) [nM] | IC50 (P2X purinoceptor 4) [nM] | IC50 (P2X purinoceptor 3) [nM] | inhibition [3] [%] | IC50 (P2X purinoceptor 2) [nM] | inhibition [5] [%] | IC50 (P2X purinoceptor 1 [8]) [nM] | inhibition [4] [%] | IC50 (P2X purinoceptor 1 [6]) [nM] | inhibition [7] [%] | inhibition [9] [%]
O=C(Nc1cccc(OC(F)(F)F)c1)c1cc(Cl)ccc1O |  |  |  |  |  |  |  |  |  |  | 7620 | 100 | 
O=C(Nc1cccc(C(F)(F)F)c1)c1cc(Cl)ccc1O |  | 5 | 6320 | 537 | > 10000 | 4 | > 10000 |  |  | 75 | 91 |  | 
O=C(Nc1cc([N+](=O)[O-])cc(C(F)(F)F)c1)c1cccc(Cl)c1O |  |  |  |  |  |  |  |  |  |  | 219 | 83 | 
COc1ccc(Cl)cc1C(=O)Nc1cc(C(F)(F)F)cc(C(F)(F)F)c1 |  |  |  |  |  |  |  |  |  |  | > 1000 |  | 17

Continued, in another order:

inhibition [1] [%] | inhibition [2] [%] | IC50 (P2X purinoceptor 7) [nM] | IC50 (P2X purinoceptor 4) [nM] | IC50 (P2X purinoceptor 3) [nM] | inhibition [3] [%] | IC50 (P2X purinoceptor 2) [nM] | inhibition [5] [%] | IC50 (P2X purinoceptor 1 [8]) [nM] | SMILES | inhibition [4] [%] | IC50 (P2X purinoceptor 1 [6]) [nM] | inhibition [7] [%] | inhibition [9] [%]
13 | -5 | 70.4 | 712 | > 10000 | 5 | > 10000 | 26 |  | O=C(Nc1cc(Cl)cc(Cl)c1)c1cc(Cl)ccc1O | 56 | 29.3 |  | 
 |  |  |  |  |  |  | 47 |  | O=C(Nc1cc(C(F)(F)F)cc(C(F)(F)F)c1)c1ccccc1 | 79 | 2220 |  | 
 | 15 | 315 | 155 | > 10000 | 30 | > 10000 |  |  | O=C(Nc1cc(C(F)(F)F)cc(C(F)(F)F)c1)c1ccccc1O | 79 | 76.9 |  | 
 |  |  |  |  |  |  |  | 1000 to 1700 | Cc1ccc(C(=O)Nc2ccc(S(=O)(=O)O)c3cc(S(=O)(=O)O)cc(S(=O)(=O)O)c23)cc1NC(=O)c1cccc(NC(=O)Nc2cccc(C(=O)Nc3cc(C(=O)Nc4ccc(S(=O)(=O)O)c5cc(S(=O)(=O)O)cc(S(=O)(=O)O)c45)ccc3C)c2)c1 [SURAMIN] | > 90 |  |  | > 40
 |  |  |  |  |  |  |  | 0.28 | O=C(Nc1cc(C(=O)Nc2ccc(S(=O)(=O)O)cc2S(=O)(=O)O)cc(C(=O)Nc2ccc(S(=O)(=O)O)cc2S(=O)(=O)O)c1)Nc1cc(C(=O)Nc2ccc(S(=O)(=O)O)cc2S(=O)(=O)O)cc(C(=O)Nc2ccc(S(=O)(=O)O)cc2S(=O)(=O)O)c1 | 100 |  |  | 
 | 0 | 599 | 135 | > 10000 | 3 | > 10000 |  |  | O=C(Nc1cccc(Cl)c1)c1cc(Cl)ccc1O | 64 | 75.6 |  | 
